“Also recorded” adds a separate entry of the source.
Key:
TRβ = molecular target: T1, TRβ (Homo sapiens, UniProt P10828); test: TRβ-anti CALUX reporter gene assay (antagonistic mode); assay type: cell-based; design: key: –: no effect observed up to the highest test concentration; conditions: PC20, 24 h exposure
T1 construct: expression construct for the full-length human receptor under investigation; expressed in transfected cells; host or cells: human U2-OS cells (ATCC HTB-96), stably transfected
T1 sequence (P10828 1-461): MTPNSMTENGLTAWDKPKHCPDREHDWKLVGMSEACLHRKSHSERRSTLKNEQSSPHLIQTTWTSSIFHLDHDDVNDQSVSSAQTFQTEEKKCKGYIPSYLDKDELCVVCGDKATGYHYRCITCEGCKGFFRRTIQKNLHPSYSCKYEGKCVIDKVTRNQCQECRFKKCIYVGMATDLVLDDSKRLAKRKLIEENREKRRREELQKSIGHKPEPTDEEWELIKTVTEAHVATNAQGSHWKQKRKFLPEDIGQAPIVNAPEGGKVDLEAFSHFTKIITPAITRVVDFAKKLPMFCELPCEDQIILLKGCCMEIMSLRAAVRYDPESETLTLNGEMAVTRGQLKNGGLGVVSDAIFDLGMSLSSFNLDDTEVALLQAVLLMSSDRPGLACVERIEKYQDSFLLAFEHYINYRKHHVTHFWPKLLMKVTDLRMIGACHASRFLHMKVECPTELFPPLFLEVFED
Description: 2-methylimidazole 99.0%, zinc(II) nitrate hexahydrate ≥99.0%, para-cymene 99.0%, 1,4-dioxane 99.8% (anhydrous), 4-nitroaniline ≥99.0%, 1-octanol ≥99.0%, diglyme ≥99.0%, DMSO-d6 (99.8% D) and chloroform-d (99.8% D) were purchased from Sigma-Aldrich. Toluene ≥99.0%, hexane ≥99.5%, DCM ≥99.5%, chloroform ≥99.5%, DMSO ≥99.0% were purchased from VWR. N,N-diethyl-4-nitroaniline ≥98.0% was purchased from Alfa Aeser. Cyrene was supplied by Circa group. N-butylpyrrolidinone was supplied by Eastman chemicals. N,N-dimethylformamide 99.9% and N,N-dimethylacetamide 99.9% were purchased from Fischer. The flakes of Ultrason® E3020 P Polyarylethersulfone of 55,000 Da were obtained from INGE.BASF, Germany. The CALUX cell lines have been described previously.[1] They are based on human U2-OS cells (ATCC, HTB-96) stably transfected with an expression construct for the full-length human receptor under investigation, and a reporter construct consisting of multimerized responsive elements for the cognate receptor coupled to a minimal promoter element (TATA) and a luciferase gene. Cells were maintained as described previously,[2] using cell culture media and supplements from Fisher Scientific as described in the experimental procedures section. […]
In vitro reporter gene assays
The automated CALUX assays were carried out similarly as described earlier,[12] with some adaptations. In brief, the assay was performed in CO2 independent medium (Fisher Scientific, […]
supplement (Fisher Scientific, 11574466), 10 U/mL penicillin and 10 µg/mL streptomycin. A cell suspension in assay medium was made of 1 × 10^5cells/mL, and white 384-wells plates were seeded with 30 µl cell suspension/well. After 24 h, exposure medium was prepared. A dilution series in 0.5log unit increments of each test compound (in DMSO) was added to a 96-wells plate containing assay medium (2% v/v). Of this exposure mixture, 30 µl was added to the assay plates containing the CALUX cells, resulting in a final DMSO concentration of 1%. Additionally, DMSO blanks and a full dose response curve of the relevant reference compound were included on each plate. All samples were tested in triplicate. The preparation of the compound dilution series as well as the exposure of the cells were performed on a Hamilton StarLET liquid handling robot coupled to a Cytomat incubator.
Directly after exposure, plates were sealed with non-breathing plate seals (Plate sealer, easy seal transparent; Greiner-Bio-One, 676001). After 24 h the exposure medium was removed using an EL406 washer-dispenser (BioTek) and 10 µl/well triton lysisbuffer was added by the EL406.
Subsequently, the luciferase signal was measured in a luminometer (InfinitePro coupled to a Connect Stacker, both TECAN). In order to be able to detect receptor antagonism, several assays were also performed in antagonistic mode. […]
The luminometer data was analysed as follows; the average of the triplicate wells was determined, and the average blank (DMSO) value was subtracted. […] For antagonist- and cytotoxicity experiments, PC20 values were determined instead, which was defined as the concentration where the test compound causes a 20% decrease in the basal signal, which was […]
curve, the signal induction above background (DMSO) was determined, and the concentration where the compound elicited a 1.5-fold increase above background was used as LEC.

Miscibility with hexane = assay type: physicochemical; conditions: this work

Compound	LEC TRβ‐anti (TRβ)	Hexane misc. (Miscibility with hexane)
CN1CCCC1=O [NMP, N‐methyl‐2‐pyrrolidone, reference compound]	–	no^[a]
CCCCN1CCCC1=O [NBP, N‐Butylpyrrolidinone, reference compound]	–	miscible; also recorded: yes^[a]

Results, then the compound that gave them:

LEC TRβ‐anti (TRβ)	Hexane misc. (Miscibility with hexane)	Compound
–	yes^[a]	CCCCN(CC)C(=O)CCC(=O)N(CC)CCCC [EBSA, N,N′‐diethyl‐N,N′‐dibutylsuccindiamide]
–	yes^[a]	CCCCN(C)C(=O)CCC(=O)N(C)CCCC [MBSA, N,N′‐dimethyl‐N,N′‐dibutylsuccindiamide]
–	yes^[a]	CCCCN(CCCC)C(=O)CCC(=O)N(CCCC)CCCC [TBSA, N,N,N′,N′‐tetrabutylsuccindiamide]

Source: PMC7318222, “A Family of Water‐Immiscible, Dipolar Aprotic, Diamide Solvents from Succinic Acid” (Chemsuschem, 2020)
